Assay type in all cases: cell-based
Test [1] has as its target T1, hNLRP3 (Homo sapiens, UniProt Q96P20).
T1 construct: THP-1 cells were purchased from the American Type Culture Collection; host or cells: THP-1 cells, PMA-differentiated
Put plainly: hNLRP3 agonist assay: IL-1β production in PMA-differentiated THP-1 cells (ELISA). To be noted: IL-1β by ELISA. (An ELISA detects its analyte on a solid surface through an enzyme-linked reagent.)

Test [2] concerns the target T2, TLR7 (Homo sapiens, UniProt Q9NYK1).
T2 sequence (Q9NYK1 27-1049): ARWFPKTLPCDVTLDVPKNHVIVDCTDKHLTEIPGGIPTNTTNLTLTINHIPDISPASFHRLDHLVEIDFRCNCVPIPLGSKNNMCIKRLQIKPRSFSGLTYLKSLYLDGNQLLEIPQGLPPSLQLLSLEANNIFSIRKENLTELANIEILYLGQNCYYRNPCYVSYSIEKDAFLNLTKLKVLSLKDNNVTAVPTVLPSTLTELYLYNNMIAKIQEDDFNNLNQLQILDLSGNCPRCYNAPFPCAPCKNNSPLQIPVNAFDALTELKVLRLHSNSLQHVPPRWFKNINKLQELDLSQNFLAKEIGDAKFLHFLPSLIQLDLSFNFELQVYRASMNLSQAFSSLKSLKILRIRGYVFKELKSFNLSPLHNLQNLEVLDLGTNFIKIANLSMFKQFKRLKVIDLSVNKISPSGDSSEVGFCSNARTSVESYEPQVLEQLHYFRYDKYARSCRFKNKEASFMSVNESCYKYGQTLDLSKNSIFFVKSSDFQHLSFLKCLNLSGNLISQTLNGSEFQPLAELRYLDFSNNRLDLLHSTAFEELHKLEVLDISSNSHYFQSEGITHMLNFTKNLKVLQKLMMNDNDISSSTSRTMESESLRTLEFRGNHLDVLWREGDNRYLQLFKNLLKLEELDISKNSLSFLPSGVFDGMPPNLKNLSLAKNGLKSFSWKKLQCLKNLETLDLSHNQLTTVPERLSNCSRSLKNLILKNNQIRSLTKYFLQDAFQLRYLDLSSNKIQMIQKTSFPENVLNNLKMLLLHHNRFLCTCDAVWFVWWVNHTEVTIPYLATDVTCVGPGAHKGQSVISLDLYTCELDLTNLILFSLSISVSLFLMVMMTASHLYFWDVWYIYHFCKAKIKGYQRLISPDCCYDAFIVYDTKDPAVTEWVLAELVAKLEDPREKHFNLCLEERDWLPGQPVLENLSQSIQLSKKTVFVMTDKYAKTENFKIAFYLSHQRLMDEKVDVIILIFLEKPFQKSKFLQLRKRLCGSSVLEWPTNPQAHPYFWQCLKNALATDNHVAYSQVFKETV
Put plainly: TLR7 EC50 assay.

Test [3] concerns the target T3, TLR8 (Homo sapiens, UniProt Q9NR97).
T3 sequence (Q9NR97 27-1041): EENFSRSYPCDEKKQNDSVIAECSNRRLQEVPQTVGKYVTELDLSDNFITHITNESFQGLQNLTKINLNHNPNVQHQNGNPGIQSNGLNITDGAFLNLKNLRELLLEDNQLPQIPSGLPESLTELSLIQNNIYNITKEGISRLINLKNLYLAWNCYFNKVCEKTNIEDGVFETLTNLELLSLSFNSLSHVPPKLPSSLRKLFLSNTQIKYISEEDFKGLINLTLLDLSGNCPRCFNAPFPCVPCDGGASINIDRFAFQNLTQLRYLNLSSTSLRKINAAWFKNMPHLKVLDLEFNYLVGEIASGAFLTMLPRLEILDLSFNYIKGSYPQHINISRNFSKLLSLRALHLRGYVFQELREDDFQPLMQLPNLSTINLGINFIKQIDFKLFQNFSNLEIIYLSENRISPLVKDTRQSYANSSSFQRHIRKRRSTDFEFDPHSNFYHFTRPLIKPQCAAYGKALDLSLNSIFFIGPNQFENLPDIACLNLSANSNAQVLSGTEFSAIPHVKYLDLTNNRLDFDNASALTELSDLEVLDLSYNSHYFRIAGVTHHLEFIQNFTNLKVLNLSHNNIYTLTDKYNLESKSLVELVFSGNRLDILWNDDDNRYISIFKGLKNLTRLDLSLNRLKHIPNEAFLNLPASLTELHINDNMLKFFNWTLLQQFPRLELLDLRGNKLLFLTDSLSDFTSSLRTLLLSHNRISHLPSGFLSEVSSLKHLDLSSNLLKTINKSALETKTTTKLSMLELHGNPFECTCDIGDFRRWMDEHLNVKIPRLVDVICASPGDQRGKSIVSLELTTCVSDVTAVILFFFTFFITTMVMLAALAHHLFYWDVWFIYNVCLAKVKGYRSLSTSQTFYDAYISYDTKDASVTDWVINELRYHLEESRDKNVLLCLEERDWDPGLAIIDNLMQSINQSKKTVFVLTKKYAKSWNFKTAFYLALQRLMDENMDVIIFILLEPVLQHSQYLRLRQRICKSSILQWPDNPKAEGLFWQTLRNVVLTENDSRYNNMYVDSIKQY
Put plainly: TLR8 EC50 assay.

Molecules are shown by their SMILES. pEC50: −log10 of the molar value.

T1 sequence (Q96P20 whole entry): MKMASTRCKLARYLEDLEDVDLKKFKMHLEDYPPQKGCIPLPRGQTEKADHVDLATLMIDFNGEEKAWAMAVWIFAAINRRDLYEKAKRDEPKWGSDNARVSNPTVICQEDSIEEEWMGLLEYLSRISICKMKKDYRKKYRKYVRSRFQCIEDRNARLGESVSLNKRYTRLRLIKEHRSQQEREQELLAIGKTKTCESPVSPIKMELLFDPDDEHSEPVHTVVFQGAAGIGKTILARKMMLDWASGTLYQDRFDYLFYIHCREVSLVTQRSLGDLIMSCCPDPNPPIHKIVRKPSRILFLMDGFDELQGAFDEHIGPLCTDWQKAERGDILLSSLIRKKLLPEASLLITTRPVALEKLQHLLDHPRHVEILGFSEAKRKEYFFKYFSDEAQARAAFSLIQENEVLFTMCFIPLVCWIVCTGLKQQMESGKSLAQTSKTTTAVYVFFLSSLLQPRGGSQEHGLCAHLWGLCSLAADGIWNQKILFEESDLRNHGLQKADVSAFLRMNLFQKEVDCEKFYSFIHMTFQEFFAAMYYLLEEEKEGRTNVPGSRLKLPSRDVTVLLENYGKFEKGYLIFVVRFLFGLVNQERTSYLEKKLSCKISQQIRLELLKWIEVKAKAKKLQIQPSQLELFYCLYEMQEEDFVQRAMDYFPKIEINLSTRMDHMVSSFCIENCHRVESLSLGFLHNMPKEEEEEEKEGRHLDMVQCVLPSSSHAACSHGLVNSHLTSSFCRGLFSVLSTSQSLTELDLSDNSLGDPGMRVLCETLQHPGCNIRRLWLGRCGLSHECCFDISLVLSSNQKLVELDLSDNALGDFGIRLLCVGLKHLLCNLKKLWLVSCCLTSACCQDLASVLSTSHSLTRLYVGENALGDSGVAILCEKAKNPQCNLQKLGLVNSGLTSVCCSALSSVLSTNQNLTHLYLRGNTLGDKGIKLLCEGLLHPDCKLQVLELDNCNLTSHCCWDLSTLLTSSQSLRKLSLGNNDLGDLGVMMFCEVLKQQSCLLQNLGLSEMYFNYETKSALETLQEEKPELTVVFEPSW

As usually defined, the pEC50 is the EC50 on a negative log10 scale, so that one unit is a factor of ten. For `CCCn1cc(-c2ccc3c(c2)nc(N)c2nc(CCCO)[nH]c23)cn1` [Compound 153, 3-[4-amino-7-(1-propylpyrazol-4-yl)-1H-imidazo[4,5-c]quinolin-2-yl]propan-1-ol], the pEC50 in test [1] (Table 2, 4 hours) was 4.70 to 6.00; in test [2] (Table 2) it was below 4.00; in test [3] (Table 2) it was below 4.00.

For the compound `Cn1nccc1-c1ccc2c(c1)nc(N)c1nc(CCCO)[nH]c12` [Compound 190, 3-[4-amino-7-(2-methylpyrazol-3-yl)-1H-imidazo[4,5-c]quinolin-2-yl]propan-1-ol], the pEC50 is 4.00 to 4.70 in test [1] (Table 2, 4 hours); below 4.00 in test [2] (Table 2); below 4.00 in test [3] (Table 2).

`Nc1nc2cc(-c3ccccc3)ccc2c2[nH]c(CCCO)nc12` [Compound 145, 3-(4-amino-7-phenyl-1H-imidazo[4,5-c]quinolin-2-yl)propan-1-ol]: the pEC50 in test [1] (Table 2, 4 hours) was at least 6.00; in test [2] (Table 2) it was below 4.00; in test [3] (Table 2), below 4.00.

For the compound `Cc1ccc(-c2ccc3c(c2)nc(N)c2nc(CCCO)[nH]c23)cn1` [Compound 172, 3-[4-amino-7-(6-methylpyridin-3-yl)-1H-imidazo[4,5-c]quinolin-2-yl]propan-1-ol], the negative logarithm of the EC50 (pEC50) in test [1] (Table 2, 4 hours) is below 4.00; in test [2] (Table 2) it was below 4.00; in test [3] (Table 2) it was below 4.00.

On to `Cc1ncc(-c2ccc3c(c2)nc(N)c2nc(CCCO)[nH]c23)cn1` [Compound 155, 3-[4-amino-7-(2-methylpyrimidin-5-yl)-1H-imidazo[4,5-c]quinolin-2-yl]propan-1-ol], for which the pEC50 in test [1] (Table 2, 4 hours) was 4.70 to 6.00; in test [2] (Table 2), below 4.00; in test [3] (Table 2), below 4.00.

Regarding `Nc1nc2ccccc2c2[nH]c(C3CCNCC3)nc12` [Compound 224], the pEC50 was 4.00 to 4.70 in test [1] (Table 2, 4 hours); below 4.00 in test [2] (Table 2); below 4.00 in test [3] (Table 2).

Consider `Nc1nc2cc(F)c(F)cc2c2[nH]c(CCCO)nc12` [Compound 136], for which the pEC50 in test [1] (Table 2, 4 hours) was 4.00 to 4.70; in test [2] (Table 2) it was below 4.00; in test [3] (Table 2), below 4.00.

For the compound `CC(C)(C)OC(=O)N1CCC(c2nc3c(N)nc4cc(Br)ccc4c3[nH]2)CC1` [Compound 225], the pEC50 in test [1] (Table 2, 4 hours) was 4.70 to 6.00; in test [2] (Table 2), below 4.00; in test [3] (Table 2) it was below 4.00.

With `CN1CCC[C@H](c2nc3c(N)nc4ccccc4c3[nH]2)C1` [Compound 138], the negative logarithm of the EC50 (pEC50) in test [1] (Table 2, 4 hours) is 4.00 to 4.70; in test [2] (Table 2), below 4.00; in test [3] (Table 2), below 4.00.

As to `Nc1nc2cc(-c3ccccn3)ccc2c2[nH]c(CCCO)nc12` [Compound 185, 3-(4-amino-7-pyridin-2-yl-1H-imidazo[4,5-c]quinolin-2-yl)propan-1-ol], the negative-log EC50 (pEC50) in test [1] (Table 2, 4 hours) is at least 6.00; in test [2] (Table 2), below 4.00; in test [3] (Table 2), below 4.00.

Regarding `Nc1nc2cc(N3CCOCC3)ccc2c2[nH]c(CCCO)nc12` [Compound 168, 3-(4-amino-7-morpholin-4-yl-1H-imidazo[4,5-c]quinolin-2-yl)propan-1-ol], the negative logarithm of the EC50 (pEC50) in test [1] (Table 2, 4 hours) is below 4.00; in test [2] (Table 2), below 4.00; in test [3] (Table 2) it was below 4.00.

With `Nc1nc2cc(-c3cccc(F)c3)ccc2c2[nH]c(CCCO)nc12` [Compound 208, 3-[4-amino-7-(3-fluorophenyl)-1H-imidazo[4,5-c]quinolin-2-yl]propan-1-ol], the pEC50 in test [1] (Table 2, 4 hours) was below 4.00; in test [2] (Table 2) it was below 4.00; in test [3] (Table 2), below 4.00.

Regarding `Nc1nc2cc(C3CCCC3)ccc2c2[nH]c(CCCO)nc12` [Compound 161, 3-(4-amino-7-cyclopentyl-1H-imidazo[4,5-c]quinolin-2-yl)propan-1-ol], the negative-log EC50 (pEC50) in test [1] (Table 2, 4 hours) was at least 6.00; in test [2] (Table 2), below 4.00; in test [3] (Table 2), below 4.00.

Take `Nc1nc2cc(N3CCNC3=O)ccc2c2[nH]c(CCCO)nc12` [Compound 115]: the negative-log EC50 (pEC50) in test [1] (Table 2, 4 hours) is 4.70 to 6.00; in test [2] (Table 2) it was below 4.00; in test [3] (Table 2), below 4.00.

In the case of `Nc1nc2cc(N3CCCCC3)ccc2c2[nH]c(CCCO)nc12` [Compound 167, 3-(4-amino-7-piperidin-1-yl-1H-imidazo[4,5-c]quinolin-2-yl)propan-1-ol], the negative-log EC50 (pEC50) is below 4.00 in test [1] (Table 2, 4 hours); below 4.00 in test [2] (Table 2); below 4.00 in test [3] (Table 2).

With `Cc1cccc(-c2ccc3c(c2)nc(N)c2nc(CCCO)[nH]c23)c1` [Compound 205, 3-[4-amino-7-(3-methylphenyl)-1H-imidazo[4,5-c]quinolin-2-yl]propan-1-ol], the negative-log EC50 (pEC50) in test [1] (Table 2, 4 hours) is 4.00 to 4.70; in test [2] (Table 2) it was below 4.00; in test [3] (Table 2) it was below 4.00.

Take `Nc1nc2ccccc2c2[nH]c(CCCO)nc12` [Compound 101, 3-[4-amino-1H-imidazo[4,5-c]quinolin-2-yl]propan-1-ol]: the pEC50 was 4.00 to 4.70 in test [1] (Table 1, 4 hours); 4.00 to 4.70 in test [2] (Table 1); 4.00 to 4.70 in test [3] (Table 1).

`Cc1ncc(-c2ccc3c(c2)nc(N)c2nc(CCCOCc4ccccc4)[nH]c23)cn1` [Compound 154, 7-(2-methylpyrimidin-5-yl)-2-(3-phenylmethoxypropyl)-1H-imidazo[4,5-c]quinolin-4-amine]: the negative logarithm of the EC50 (pEC50) in test [1] (Table 2, 4 hours) is 4.70 to 6.00; in test [2] (Table 2) it was below 4.00; in test [3] (Table 2) it was below 4.00.

As for `Nc1nc2cc(Cl)c(Cl)cc2c2[nH]c(CCCO)nc12` [Compound 126], the pEC50 was 4.70 to 6.00 in test [1] (Table 2, 4 hours); below 4.00 in test [2] (Table 2); below 4.00 in test [3] (Table 2).

With `CCNC(C)(C)c1nc2c(N)nc3cc(-c4cc[nH]n4)ccc3c2[nH]1` [Compound 251], the negative-log EC50 (pEC50) in test [1] (Table 2, 4 hours) was 4.70 to 6.00; in test [2] (Table 2) it was below 4.00; in test [3] (Table 2), below 4.00.

Take `Nc1nc2cc(Br)ccc2c2[nH]c(C3CCN(S(=O)(=O)c4ccccc4)CC3)nc12` [Compound 220]: the pEC50 in test [1] (Table 2, 4 hours) was 4.70 to 6.00; in test [2] (Table 2) it was below 4.00; in test [3] (Table 2) it was below 4.00.

Consider `Nc1nc2cc(-c3cccnc3Cl)ccc2c2[nH]c(CCCO)nc12` [Compound 215, 3-[4-amino-7-(2-chloropyridin-3-yl)-1H-imidazo[4,5-c]quinolin-2-yl]propan-1-ol], for which the pEC50 in test [1] (Table 2, 4 hours) is below 4.00; in test [2] (Table 2) it was 4.00 to 4.70; in test [3] (Table 2), 4.00 to 4.70.

Regarding `Nc1nc2cc(-c3ccc[nH]c3=O)ccc2c2[nH]c(CCCO)nc12` [Compound 238], the negative logarithm of the EC50 (pEC50) is 4.70 to 6.00 in test [1] (Table 2, 4 hours); below 4.00 in test [2] (Table 2); below 4.00 in test [3] (Table 2).

As for `Nc1nc2cc(-c3cccc(=O)[nH]3)ccc2c2[nH]c(CCCO)nc12` [Compound 239], the negative logarithm of the EC50 (pEC50) in test [1] (Table 2, 4 hours) was 4.70 to 6.00; in test [2] (Table 2), below 4.00; in test [3] (Table 2), below 4.00.

In the case of `Nc1nc2ccccc2c2[nH]c([C@H]3C[C@H](O)C3)nc12` [Compound 133], the negative logarithm of the EC50 (pEC50) in test [1] (Table 2, 4 hours) was 4.00 to 4.70; in test [2] (Table 2), below 4.00; in test [3] (Table 2), below 4.00.

Turning to `COc1cccc(-c2ccc3c(c2)nc(N)c2nc(CCCO)[nH]c23)c1` [Compound 206, 3-[4-amino-7-(3-methoxyphenyl)-1H-imidazo[4,5-c]quinolin-2-yl]propan-1-ol], the pEC50 in test [1] (Table 2, 4 hours) was below 4.00; in test [2] (Table 2) it was below 4.00; in test [3] (Table 2), below 4.00.

The values above are taken from patent US11072612B2, “NLRP3 modulators” (INNATE TUMOR IMMUNITY, INC., priority 2016, dated 2021).
